The supplement of paper PMC10702517
± gives the standard deviation.

Assays:
[1] = chemical recovery into PDMS from spiked human plasma; higher = better extraction; details: pooled human plasma, extraction method: PES with PDMS
[2] = chemical recovery by SPE of plasma after PDMS sampling; higher = better extraction; details: pooled human plasma, extraction method: HLB SPE of plasma after PES
[3] = chemical recovery from spiked human plasma; higher = better extraction; details: pooled human plasma
[4] = extraction method: PES+SPE (3 d PDMS equilibration then HLB SPE)
[5] = extraction method: SPE only (HLB 96-well)
[6] = extraction method: SPE only (HLB 96-well), PES comparison experiment
[7] = extraction method: solvent precipitation (ACN + hexane)
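Throughout, for chemical recovery by SPE of plasma after PDMS sampling: over 400 spiked chemicals quantified by LC-HRMS or GC-HRMS via internal standard calibration, recovery relative to spike mix added to unspiked plasma extract to correct matrix effects.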

Compound | chemical recovery into PDMS ([1]; equilibration time (d): 1) [%] | chemical recovery into PDMS ([1]; equilibration time (d): 3) [%] | chemical recovery into PDMS ([1]; equilibration time (d): 6) [%] | chemical recovery by SPE of plasma ([2]; equilibration time (d): 1) [%] | chemical recovery by SPE of plasma ([2]; equilibration time (d): 3) [%] | chemical recovery by SPE of plasma ([2]; equilibration time (d): 6) [%] | chemical recovery [3, 4] [%] | chemical recovery [3, 5] [%] | chemical recovery [3, 6] [%] | chemical recovery [3, 7] [%]
CCNc1nc(Cl)nc(NC(C)C)n1 [Atrazine] | 34.5 ± 1.7 | 39.1 ± 2.9 | 39.4 ± 0.96 | 6.06 ± 0.65 | 4.12 ± 0.74 | 2.39 ± 0.2 | 43.7 ± 5.2 | 41.5 ± 2.1 | 50.6 ± 6.8 | 62.9 ± 5.5
CC1(C)CC(N)CC(C)(CN)C1 (stereo not drawn) [Isophorone diamine] | 0.00705 ± 0.025 | 0.0508 ± 0.069 |  |  |  | 1.22 ± 0.75 |  |  | 4.27 ± 3.6 | 
COCCN(C(=O)CS(=O)(=O)O)c1c(C)cccc1C [Dimethachlor ESA] | 0.000876 ± 0.0015 | 0.000445 ± 0.00077 |  | 46.9 ± 7.3 | 53.3 ± 3.2 | 48 ± 4.5 |  |  | 50.3 ± 3.3 | 
CS(=O)(=O)c1ccccc1 [Methylphenylsulfone] | 94.1 ± 26 | 98.5 ± 33 | 100 ± 28 |  | 104 ± 9.2 |  |  | 19.9 ± 3.2 |  | 68 ± 24
CN(C)c1nc(=O)n(C2CCCCC2)c(=O)n1C [Hexazinone] | 36.1 ± 1.9 | 42.2 ± 4.5 | 44.5 ± 2.9 | 38.9 ± 6.6 |  | 22.5 ± 4.4 | 51.5 ± 4.8 | 45.4 ± 3.4 | 48.5 ± 4.3 | 
CC(C)N(C(=O)COc1nnc(C(F)(F)F)s1)c1ccc(F)cc1 [Flufenacet] | 50 ± 1.1 | 54.1 ± 4.8 | 51.2 ± 6 | 0.558 ± 0.061 | 0.583 ± 0.14 | 0.269 ± 0.043 |  |  | 52.3 ± 7.7 | 62.5 ± 3.1
Clc1ccc2ccccc2c1 [2-Chloronaphthalene] | 10.2 ± 1.7 |  |  | 3.42 ± 3 |  |  |  | 0.106 ± 0.18 | 0.564 ± 0.39 | 
O=c1c2ccccc2[nH]c2ccccc12 [Acridone] | 11.4 ± 0.43 | 19.2 ± 3.2 | 21.8 ± 3.6 | 57.8 ± 8.4 | 55.6 ± 1.6 | 44.9 ± 4.3 | 62.8 ± 6 | 47.2 ± 3.6 | 50.5 ± 5 | 71.9 ± 1.1
Cc1ccccc1N [o-Toluidine] | 0.669 ± 0.41 | 0.533 ± 0.3 | 0.369 ± 0.35 | 4.67 ± 6.8 | 1.92 ± 0.63 | 1.2 ± 0.91 |  | 6.06 ± 3.9 | 6.06 ± 5.9 | 17.2 ± 2.6
CC(=O)c1cc2c(cc1C)C(C)(C)C(C)CC2(C)C (stereo not drawn) [Tonalide] | 49 ± 3.7 | 48.1 ± 5.2 | 55.1 ± 2.9 | 0.526 ± 0.91 |  |  | 41.1 ± 12 | 17.1 ± 5 | 22.3 ± 6.1 | 
Fc1ccc([C@]2(Cn3cncn3)O[C@H]2c2ccccc2Cl)cc1 (racemic) [Epoxiconazole] | 43.7 ± 1.7 | 48.1 ± 4.1 | 46.5 ± 5.9 | 0.968 ± 0.044 | 0.628 ± 0.21 | 0.285 ± 0.018 |  |  | 47.4 ± 6.8 | 73.6 ± 3
ClC(Cl)=C(c1ccc(Cl)cc1)c1ccc(Cl)cc1 [4,4-DDE] | 83.8 ± 12 | 87.9 ± 3.9 | 93 ± 13 | 0.964 ± 1 | 0.268 ± 0.47 |  |  |  | 13 ± 3 | 
CCCCCCCCCCCCCCN(C)C [N,N-Dimethyltetradecylamine] |  | 0.0161 ± 0.022 |  | 0.241 ± 0.23 | 0.0666 ± 0.015 | 0.0207 ± 0.085 |  |  | 39.3 ± 8.7 | 
c1ccc2c(c1)Cc1cc3ccccc3cc1-2 [Benzo(b)fluorene] |  | 107 ± 3.9 | 110 ± 13 | 1.71 ± 1.6 | 2.82 ± 0.45 | 2.41 ± 0.48 | 57.9 ± 6.2 | 1.4 ± 0.48 | 17.5 ± 3.4 | 69.1 ± 5.1
CN(C)C(=O)Nc1ccc(Oc2ccc(Cl)cc2)cc1 [Chloroxuron] | 37.3 ± 1.7 | 43.6 ± 2.7 | 42.8 ± 0.94 | 11 ± 2.2 | 7.37 ± 0.66 | 4.53 ± 0.44 |  | 36.4 ± 1.9 | 49.8 ± 7.3 | 
CCOC(=O)c1ccc(N(C)C)cc1 [Ethyl 4-(dimethylamino)benzoate] | 26 ± 6 | 27.7 ± 4.9 | 29.8 ± 3.4 | 1.27 ± 0.14 | 1.79 ± 0.23 | 1.11 ± 0.13 | 25.6 ± 9.8 | 38.6 ± 1.8 | 37.5 ± 6.9 | 60.4 ± 5.1
Cc1cccc(C)c1N(Cn1cccn1)C(=O)C(=O)O [Metazachlor OA] |  |  | 0.0244 ± 0.042 | 56.9 ± 8.4 | 63.4 ± 2.8 | 57.2 ± 4.4 |  |  | 50.4 ± 3.9 | 
CC1(C)CCC(Cc2ccc(Cl)cc2)C1(O)Cn1cncn1 (stereo not drawn) [Metconazole] | 39.4 ± 2.5 | 41.9 ± 2.7 | 41.91 ± 0.15 | 2.06 ± 0.36 | 1.76 ± 0.4 | 1.11 ± 0.42 |  |  | 46.3 ± 8.6 | 74.3 ± 3.4
CNC(=O)/C(=N/OC)c1ccccc1COc1cc(C)ccc1C [Dimoxystrobin] | 42.8 ± 4.3 | 44.9 ± 3.4 | 43.2 ± 1.9 | 3.56 ± 3.1 | 9.02 ± 0.83 | 7.35 ± 0.63 | 60.1 ± 20 | 35.7 ± 4 | 50.3 ± 9.1 | 72.7 ± 5.8
O=C(NC(=O)c1c(F)cccc1F)Nc1ccc(Cl)cc1 [Diflubenzuron] | 36.3 ± 2.5 | 38.3 ± 2.3 | 40.4 ± 5 | 8.71 ± 3.2 | 8.73 ± 0.29 | 4.73 ± 0.29 |  | 29.8 ± 6.3 |  | 48.6 ± 2.1
c1ccc2sc(N3CCOCC3)nc2c1 [2(4-morpholinyl)benzothiazole] | 27.1 ± 0.46 | 29.2 ± 2.2 | 30.7 ± 0.94 | 1.2 ± 0.1 | 1.41 ± 0.23 | 0.805 ± 0.046 | 41.7 ± 6.4 | 39.6 ± 2.1 | 40.1 ± 5.6 | 67.9 ± 3.3
CO/C=C(/C(=O)OC)c1ccccc1Oc1cc(Oc2ccccc2C#N)ncn1 [Azoxystrobin] | 40.1 ± 1.9 | 43.9 ± 3.2 | 43 ± 0.52 | 5.12 ± 0.84 | 3.88 ± 0.44 | 2.15 ± 0.22 | 46.6 ± 5.9 | 46.7 ± 1.1 | 51.9 ± 7.1 | 75.6 ± 3.4
CC(Cc1ccc(C(C)(C)C)cc1)CN1C[C@@H](C)O[C@@H](C)C1 (stereo partly drawn) [Fenpropimorph] | 0.0443 ± 0.064 | 0.0146 ± 0.013 | 0.0427 ± 0.056 | 0.124 ± 0.08 | 0.066 ± 0.064 | 0.0142 ± 0.017 |  |  | 43.4 ± 8 | 80.2 ± 11
COc1ccccc1Oc1c(NS(=O)(=O)c2ccc(C(C)(C)C)cc2)nc(-c2ncccn2)nc1OCCO [Bosentan] |  | 0.517 ± 0.46 | 0.935 ± 0.25 | 40.6 ± 4.4 | 48.7 ± 5.1 | 42.2 ± 6.5 |  |  | 49.7 ± 11 | 75.4 ± 4.9
CC(C)CC(C)(O)C#CC(C)(O)CC(C)C (stereo not drawn) [TMDD] | 47.1 ± 4.9 |  | 60.2 ± 18 |  |  | 38.6 ± 6 |  | 47.5 ± 6 |  | 77.6 ± 7
O=C(/C=C/C=C/c1ccc2c(c1)OCO2)N1CCCCC1 [Piperine] | 34.8 ± 3.2 | 39.3 ± 4.2 | 36.6 ± 1.7 | 1.77 ± 0.44 | 1.85 ± 0.37 | 0.965 ± 0.074 |  | 40.7 ± 2.7 | 56.1 ± 7.1 | 83.6 ± 4
C1=Cc2ccccc2Nc2ccccc21 [Iminostilbene] | 2.55 ± 1.2 | 2.02 ± 2.1 | 1.36 ± 0.63 | 3.69 ± 2.4 | 4 ± 1.1 | 2.5 ± 1.3 | 10.8 ± 4.1 | 44.1 ± 7 | 28.4 ± 4.4 | 73.2 ± 4.5
